Data on six molecules can be found in US20260021181A1, “CHIMERIC COSTIMULATORY RECEPTORS, CHEMOKINE RECEPTORS, AND THE USE OF SAME IN CELLULAR IMMUNOTHERAPIES” (Iovance Biotherapeutics, Inc., priority 2022, published 2026).

For experiment [1], the system named is TIL. Put plainly: AKT inhibitor (ipatasertib) added during ex vivo TIL expansion: expansion, viability, phenotype. In kind it is cell-based. On the procedure:
Patient tumors from different indications were received, fragmented, and subjected to an expansion protocol for TIL manufacturing. Different doses (0.3 μM and 1 μM) of the pan-AKT inhibitor ipatasertib were added to the culture during ex vivo expansion. The expansion potential, as well as the phenotypic and functional characteristics were evaluated on the final TIL product. Eight tumors, including tumors from melanoma, NSCLC, head and neck cancer, ovarian cancer, and breast cancer, were used in combination with the Gen 2 process. […] Expansion, viability and T cell distribution in control and AKT inhibitor-treated TILs are shown. TILs were left untreated or treated with increasing concentrations of the pan-AKT inhibitor ipatasertib. Treatment was added either during the pre-REP and REP (blue bars) or during the REP stage only (purple bars). Fold expansion and viability of TIL at the end of the 22-day expansion process are shown. Frequency of CD8^+, CD4^+ and CD4^+ (Foxp3^+) cells after the expansion process on cryopreserved cells are also shown.

The test system of experiment [2] is TIL. Put plainly: Cytokine expression of TILs after overnight anti-CD3/CD28 bead stimulation. Type of experiment: cell-based. The source says: Control or decitabine-treated cryopreserved TILs were thawed and stained for flow cytometry analysis.
For experiment [3], the target named is PD-L1 (Homo sapiens, UniProt Q9NZQ7). Put plainly: Hek-IL-18 SEAP reporter assay of CCR8 and CCR8.2 stimulated with PD-L1. In kind it is cell-based. The following applies: 650 nm, IL-18 standard. Here is the method:
The biological function of the CCR constructs was tested with Hek-IL-18 SEAP reporter lines. CCR8 and CCR8.2 transduced HekIL-18 reporter cells (5×10^4) were stimulated with the indicated concentration of PD-L1 (His tagged) in the presence of anti-His antibody (antibody:protein ratio=2:1; e.g., for 5 μg/mL PD-L1, add 10 μg/mL anti-His antibody). After 24 hours, supernatants were harvested, and SEAP level was determined with a spectrophotometer at 650 nm after adding Quanti-blue solution. CCR12 and CCR12.2 transduced HekIL-18 reporter cells (5×10^4) were stimulated with the indicated concentration of TROP-2 (His tagged) in the presence of anti-His antibody (antibody:protein ratio=2:1). After 24 hours, supernatants were harvested, and SEAP level was determined with a spectrophotometer at 650 nm after adding Quanti-blue solution.

In experiment [4] the target is T1, human PD-L1 on hPD-L1 Raji cells (human, UniProt Q9NZQ7 19-290).
T1 construct: whole, on cells
Put plainly: flow cytometry on hPD-L1 Raji cells, titration in the presence of the other antibody. Background: In flow cytometry, cells or beads pass a laser one at a time.

In experiment [5] the target is T2, PD-L1 (human, UniProt Q9NZQ7 19-238, limits assumed).
T2 construct: also called hPD-L1; CD274
Put plainly: EC50 of anti-PD-L1 antibody clone; assay not given.

T2 sequence (Q9NZQ7 19-238 limits assumed): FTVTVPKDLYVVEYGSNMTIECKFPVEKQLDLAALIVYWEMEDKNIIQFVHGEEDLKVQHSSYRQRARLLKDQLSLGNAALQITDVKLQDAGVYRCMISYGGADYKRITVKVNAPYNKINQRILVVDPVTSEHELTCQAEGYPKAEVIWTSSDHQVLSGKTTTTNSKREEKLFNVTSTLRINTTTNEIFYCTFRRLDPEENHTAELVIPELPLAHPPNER
T1 sequence (Q9NZQ7 19-290): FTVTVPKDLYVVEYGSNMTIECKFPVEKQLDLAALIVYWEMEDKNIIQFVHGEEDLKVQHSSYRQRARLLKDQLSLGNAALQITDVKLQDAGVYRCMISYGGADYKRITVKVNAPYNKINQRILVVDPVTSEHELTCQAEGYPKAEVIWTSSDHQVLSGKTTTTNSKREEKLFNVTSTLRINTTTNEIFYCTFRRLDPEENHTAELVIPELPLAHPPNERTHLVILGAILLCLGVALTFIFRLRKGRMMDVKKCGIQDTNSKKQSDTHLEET
Chain of PD-L1 (Homo sapiens, UniProt Q9NZQ7) (Q9NZQ7 19-290): as above

On to `CC(C)NC[C@@H](C(=O)N1CCN(c2ncnc3c2[C@H](C)C[C@H]3O)CC1)c1ccc(Cl)cc1` [ipatasertib], for which, in the experiment on TIL [1], the “IL-7R and CXCR3 expression on CD8+ TILs” value is “increase”; the “TOX expression following stimulation” value is “lower”; the “frequency of CD8+ TEMRA cells” value is “increase”; the “frequency of less differentiated CD8+CD69−CD39− T cells on CD8+ and CD4+ TILs” value is “increases”. Besides, in the experiment with TIL [1] (1 μM dose), the “expansion and viability of TILs relative to controls” value is “equivalent”; the “expression of CD38 and transcription factors T-bet and TOX in CD39− CD69− cells” value was “reduced expression”; the “population of less differentiated CD39− CD69− cells” value is listed as “doubled”. For the same molecule, the “T cell ratios (CD8+, CD4+, CD4+ Foxp3+)” value in the experiment on TIL [1] (after the expansion process) is listed as “without affecting”. In addition, the “TIL expansion and viability” value in the experiment on TIL [1] (pre-REP and REP or REP only, end of 22-day expansion) is “maintains”. Further, the “frequency of IFNγ+TNFα+CD8+ T cells” value with TIL [2] is reported as “increase”. For the same molecule, the “cytokine output following stimulation” value in the experiment with TIL [2] (1 μM at pre-REP and REP, anti-CD3/CD28 beads overnight, bead-to-cell ratio 1:5) was “higher cytokine output”.
On to “IL-18: IL-18 standard in Hek-IL-18 SEAP reporter assay”, for which the “IL-18 stimulation equivalent to an OD value of 0.5” value in the experiment with PD-L1 [3] is listed as “about 3.175 pg/mL”.

B1: 38A1-IgG4-HA (antibody)
chain: EVQLVESGGGLVQPGGSLRLSCAASGFTFSNYAMSWVRQAPGKGLEWVSTISGSGGTTYYADSVKGRFTISRDNSKNTLYLQMNSLRVEDTAVYYCAKDWFRSSSPDAFDIWGQGTTVTVSAGGGGSGGGGSGGGGSGAPSYVLTQPPSVSVAPGQTARITCGGNNIGRKIVHWYQQRPGQAPVLVIYYDTDRPAGIPERFSGSNSGNMATLTISTVGAGDEADYYCQVWDTGSDHVVFGGGTKLTVL
notes: The order of the parts and the format (scFv-IgG4 Fc-HA) of the tested protein are not spelled out; Detected with anti-HA-APC; also called anti-PD-L1 Ab clone 38A1-IgG4-HA; scFv-Fc antibody 38A1; not shown: IgG4 part, known only from the name 38A1-IgG4-HA; HA tag
Regarding B1, the binding result in experiment [4] is recorded as “binds”.

B2: 38A1-IgG4-HA (antibody)
chain: EVQLVESGGGLVQPGGSLRLSCAASGFTFSNYAMSWVRQAPGKGLEWVSTISGSGGTTYYADSVKGRFTISRDNSKNTLYLQMNSLRVEDTAVYYCAKDWFRSSSPDAFDIWGQGTTVTVSAGGGGSGGGGSGGGGSGAPSYVLTQPPSVSVAPGQTARITCGGNNIGRKIVHWYQQRPGQAPVLVIYYDTDRPAGIPERFSGSNSGNMATLTISTVGAGDEADYYCQVWDTGSDHVVFGGGTKLTVL
For orientation: EC50 means the concentration needed to bring the measured effect to its halfway point. Read a low EC50 as an effect from little substance. The molecule B2 gave an EC50 with PD-L1 [5] of 404 pM.

B3: 19H9-IgG4-Flag (antibody)
chain: QVQLQESGGGLVKPGGSLRLSCAASGFTFSSYSMNWVRQAPGKGLEWVSGINTAGDTHYPESVKGRFTISRDNARNSLNLQMNSLRAEDTAVYYCVRERVEREYSGYDAFDIWGQGTTVTVSAGGGGSGGGGSGGGGSGAPNFMLTQPHSVSESLGKTVTISCTGSSGSIARKFVQWYQQRPGSSPTTVIYENNQRPSGVSDRFSGSIGSSSNSASLTISGLKTEDEADYYCQSYDSSNVVFGGGTKVTVL
In the case of B3, in the experiment with PD-L1 [5], the EC50 was found to be 125 pM. This EC50 is about 3.2-fold lower than that of the molecule before.

B4: 19H9-IgG4-Flag (antibody)
chain: QVQLQESGGGLVKPGGSLRLSCAASGFTFSSYSMNWVRQAPGKGLEWVSGINTAGDTHYPESVKGRFTISRDNARNSLNLQMNSLRAEDTAVYYCVRERVEREYSGYDAFDIWGQGTTVTVSAGGGGSGGGGSGGGGSGAPNFMLTQPHSVSESLGKTVTISCTGSSGSIARKFVQWYQQRPGSSPTTVIYENNQRPSGVSDRFSGSIGSSSNSASLTISGLKTEDEADYYCQSYDSSNVVFGGGTKVTVL
notes: The order of the parts and the format of the tested protein are not spelled out; Detected with anti-Flag-AF488; also called 19H-IgG4-Flag; scFv-Fc antibody 19H9; not shown: IgG4 part, known only from the name 19H9-IgG4-Flag; Flag tag
As for B4, in experiment [4], the binding result is “binds”.
